Test results reported in patent US20120034613A1, “Apparatus and Method for Testing Relationships Between Gene Expression and Physical Appearance of Skin” (NSE Products, Inc., priority 2010, published 2012).

Tested on: EpidermFT™ Skin Model (EFT-400) full thickness skin cultures
Experiment: Affymetrix GeneChip HG U133 Plus 2.0 microarray global gene expression, agent-exposed vs untreated skin cultures
Format: cell-based, human
Details: Salicin 0.5% vs Untreated Control, 24 hr; direction down

OCc1ccccc1O[C@@H]1O[C@H](CO)[C@@H](O)[C@H](O)[C@H]1O [Salicin, 2-(Hydroxymethyl)phenyl β-D-glucospyranoside]
Fold change IDH2 (210045_at): 2.059
Fold change IL22RA1 (220056_at): 2.023
Fold change INPP5D (203332_s_at): 2.061
Fold change ITGA3 (201474_s_at): 2.052
Fold change JAG1 (209099_x_at): 2.044
Fold change JAG1 (216268_s_at): 2.123
Fold change JMJD7 /// JMJD7-PLA2G4B /// PLA2G4B (222256_s_at): 2.101
Fold change KCNK7 (224055_x_at): 2.127
Fold change KCTD15 (222668_at): 2.037
Fold change KIF1B (209234_at): 2.105
Fold change KIF1B (225878_at): 2.14
Fold change KLK1 (216699_s_at): 2.169
Fold change KRT5 (201820_at): 2.154
Fold change KRT6A (209125_at): 2.034
Fold change KRT10 (207023_x_at): 2.066
Fold change KRTCAP3 (235148_at): 2.158
Fold change LMNA (212089_at): 2.1
Fold change LMNA (1554600_s_at): 2.053
Fold change LMNB1 (203276_at): 2.146
Fold change LOC284837 (1563088_a_at): 2.115
Fold change LOC286440 (209733_at): 2.16
Fold change LOC400027 (226413_at): 2.041
Fold change LOC401233 (1558882_at): 2.002
Fold change LOC648245 (227739_at): 2.064
Fold change LOC652968 (233528_s_at): 2.038
Fold change LOC727820 (227384_s_at): 2.055
Fold change LOC100128443 /// MAST4 (210958_s_at): 2.131
Fold change LOC100128822 (235174_s_at): 2.067
Fold change LOC100130837 (242255_at): 2.078
Fold change LOC100131262 (1558152_at): 2.081
Fold change LOC100131851 /// LOC100134497 /// LOC401002 /// LOC646674 /// SSBP3 (222482_at): 2.025
Fold change LOC100133772 /// SLC16A5 (206600_s_at): 2.044
Fold change LOC100134937 (229685_at): 2.12
Fold change LPHN1 (47560_at): 2.092
Fold change LY75 (205668_at): 2.028
Fold change LYSMD4 (228954_at): 2.116
Fold change MAFB (218559_s_at): 2.112
Fold change MAPRE2 (202501_at): 2.078
Fold change MEGF9 (212831_at): 2.176
Fold change MFAP5 (213764_s_at): 2.112
Fold change MIB2 (226644_at): 2.032
Fold change MPP7 (238451_at): 2.14
Fold change MTHFR (226929_at): 2.073
Fold change MTMR1 (214975_s_at): 2.146
Fold change MUC1 (213693_s_at): 2.138
Fold change MYO18A /// TIAF1 (202039_at): 2.04
Fold change NBEAL2 (212443_at): 2.05
Fold change NCF2 (209949_at): 2.128
Fold change NCRNA00086 (238697_at): 2.098
Fold change PAIP1 (208051_s_at): 2.141
Fold change PAIP2B (221868_at): 2.043
Fold change PAWR (204005_s_at): 2.161
Fold change PAWR (229515_at): 2.15
Fold change PDIK1L (227255_at): 2.059
Fold change PERP (217744_s_at): 2.176
Fold change PIGW (1558292_s_at): 2.085
Fold change PLEKHA2 (225136_at): 2.159
Fold change PLS3 (201215_at): 2.167
Fold change PNMA2 (209598_at): 2.146
Fold change POLE2 (205909_at): 2.104
Fold change POLH (231115_at): 2.029
Fold change POLR3B (219459_at): 2.135
Fold change POU3F1 (208345_s_at): 2.16
Fold change PPAP2C (209529_at): 2.033
Fold change PPP1CB (201409_s_at): 2.054
Fold change PPP2CA (208652_at): 2.035
Fold change PRDX2 (39729_at): 2.068
Fold change PRKX (204061_at): 2.015
Fold change PTCH1 (209815_at): 2.148
Fold change PTGFR (1555097_a_at): 2.022
Fold change PVRL1 (225211_at): 2.08
Fold change RAB7B (1553982_a_at): 2.095
Fold change RAPGEFL1 (218657_at): 2.162
Fold change RHOV (241990_at): 2.107
Fold change RICS (203431_s_at): 2.143
Fold change RNF170 (226104_at): 2.034
Fold change RORA (235567_at): 2.083
Fold change RPS6KA5 (204633_s_at): 2.051
Fold change RPS6KB2 (203777_s_at): 2.074
Fold change SCRN3 (222849_s_at): 2.115
Fold change SDCCAG8 (243963_at): 2.133
Fold change SEMA4D (203528_at): 2.021
Fold change SERPINB1 (213572_s_at): 2.014
Fold change SETBP1 (227478_at): 2.148
Fold change SHROOM2 (204967_at): 2.088
Fold change SLC5A3 (212944_at): 2.165
Fold change SLC24A3 (219090_at): 2.138
Fold change SLC45A4 (225598_at): 2.071
Fold change SLCO3A1 (219229_at): 2.162
Fold change SMAP2 (225282_at): 2.14
Fold change SMCR7 (235896_s_at): 2.152
Fold change SNX21 (1553960_at): 2.031
Fold change SNX24 (218705_s_at): 2.152
Fold change SORD (201563_at): 2.01
Fold change ST8SIA4 (230836_at): 2.021
Fold change STK24 (208854_s_at): 2.165
Fold change SYNGR2 (201079_at): 2.14
Fold change TANC1 (225308_s_at): 2.118
Fold change TCEA3 (226388_at): 2.034
Fold change TCHP (223455_at): 2.126
Fold change TGOLN2 (1554608_at): 2.114
Fold change THBD (203888_at): 2.109
Fold change TIMM22 (219184_x_at): 2.067
Fold change TMC5 (222904_s_at): 2.096
Fold change TMEM19 (226860_at): 2.032
Fold change TMEM45A (219410_at): 2.136
Fold change TMEM50B (225182_at): 2.096
Fold change TMEM80 (65630_at): 2.031
Fold change TP53I3 (210609_s_at): 2.13
Fold change TRAF3IP2 (202987_at): 2.079
Fold change TRIM2 (202342_s_at): 2.062
Fold change TTC30B (1554588_a_at): 2.011
Fold change VPS4B (218171_at): 2.031
Fold change WNK1 (39313_at): 2.008
